#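 Where inhibition never reached the appropriate level, the endpoint shown equals the highest concentration tested. Otherwise, values were interpolated linearly from a five-concentration, 48-hour dose response in 96-well plates. GI50: concentration for 50% inhibition of growth.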 Calls of active or inactive are those of the source. Rule as the data show it: active = GI50 up to about 1.1 µM and inactive = higher.
# Experiments:
# Test in all cases: NCI-60 cell line screen, 48 h
# COLO 205 = tested on: COLO 205
# NCI-H226 = tested on: NCI-H226
# HOP-92 = tested on: HOP-92
# UO-31 = tested on: UO-31
# SW-620 = tested on: SW-620
# K562 = tested on: K562
# RPMI-8226 = tested on: RPMI-8226
# SK-MEL-5 = tested on: SK-MEL-5
# NCI-H23 = tested on: NCI-H23
# Malme-3M = tested on: Malme-3M
# MOLT-4 = tested on: MOLT-4
# U-251 = tested on: U-251
# KM12 = tested on: KM12
# OVCAR-8 = tested on: OVCAR-8
# CAKI-1 = tested on: CAKI-1
# CCRF-CEM = tested on: CCRF-CEM
# SK-MEL-2 = tested on: SK-MEL-2
# SF-539 = tested on: SF-539
# OVCAR-4 = tested on: OVCAR-4
# IGROV-1 = tested on: IGROV-1
Structure (SMILES),GI50 (COLO 205),GI50 (NCI-H226),GI50 (HOP-92),GI50 (UO-31),GI50 (SW-620),GI50 (K562),GI50 (RPMI-8226),GI50 (SK-MEL-5),GI50 (NCI-H23),GI50 (Malme-3M),GI50 (MOLT-4),GI50 (U-251),GI50 (KM12),GI50 (OVCAR-8),GI50 (CAKI-1),GI50 (CCRF-CEM),GI50 (SK-MEL-2),GI50 (SF-539),GI50 (OVCAR-4),GI50 (IGROV-1)
C[n+]1ccc(Nc2ccc(NC(=O)c3ccc(Nc4cc[n+](C)c5ccc([N+](=O)[O-])cc45)cc3[N+](=O)[O-])cc2)cc1,14 µM (inactive),> 56.1 µM (inactive),22.8 µM (inactive),45.3 µM (inactive),> 100 µM (inactive),14.3 µM (inactive),24 µM (inactive),24.1 µM (inactive),> 55.6 µM (inactive),19.7 µM (inactive),32.3 µM (inactive),22.6 µM (inactive),65.9 µM (inactive),31.7 µM (inactive),> 75.3 µM (inactive),24.4 µM (inactive),48.8 µM (inactive),22.8 µM (inactive),51.2 µM (inactive),
CCN(CC)CCCOC(=O)/C=C/c1c(C)[nH]c(=O)[nH]c1=O,> 625 µM (inactive),> 625 µM (inactive),56.9 µM (inactive),> 625 µM (inactive),> 625 µM (inactive),> 625 µM (inactive),> 625 µM (inactive),> 625 µM (inactive),> 625 µM (inactive),> 625 µM (inactive),> 625 µM (inactive),> 625 µM (inactive),> 625 µM (inactive),135 µM (inactive),> 625 µM (inactive),> 625 µM (inactive),> 394 µM (inactive),> 625 µM (inactive),> 394 µM (inactive),> 625 µM (inactive)
Cc1cc(C)c2c(c1)CC1(Cc3c(C)ccc(C)c3C1=O)C2=O (stereo not given),> 100 µM (inactive),> 100 µM (inactive),> 100 µM (inactive),,> 100 µM (inactive),> 100 µM (inactive),> 100 µM (inactive),> 100 µM (inactive),,> 100 µM (inactive),> 100 µM (inactive),> 100 µM (inactive),> 100 µM (inactive),> 100 µM (inactive),> 100 µM (inactive),> 100 µM (inactive),> 100 µM (inactive),> 100 µM (inactive),> 100 µM (inactive),> 100 µM (inactive)
CNC(=S)N/N=C(/C)CCC/C(C)=N/NC(=S)NC,0.308 µM (active),> 61.7 µM (inactive),> 100 µM (inactive),> 54.8 µM (inactive),,0.408 µM (active),5.61 µM (inactive),16.4 µM (inactive),> 100 µM (inactive),> 90.4 µM (inactive),0.0414 µM (active),> 42.1 µM (inactive),> 100 µM (inactive),57.4 µM (inactive),> 100 µM (inactive),0.145 µM (active),> 100 µM (inactive),> 100 µM (inactive),1.69 µM (inactive),3.02 µM (inactive)
CC(C)(CO)NC(=O)c1cccc(C(=O)NC(C)(C)CO)c1Br,> 100 µM (inactive),> 100 µM (inactive),> 100 µM (inactive),> 100 µM (inactive),> 100 µM (inactive),> 100 µM (inactive),> 100 µM (inactive),> 100 µM (inactive),> 100 µM (inactive),> 100 µM (inactive),> 100 µM (inactive),> 100 µM (inactive),> 100 µM (inactive),> 100 µM (inactive),> 100 µM (inactive),,> 100 µM (inactive),> 100 µM (inactive),> 100 µM (inactive),> 100 µM (inactive)
CC1(C)O[C@H]2OC(CO)C(OS(C)(=O)=O)[C@H]2O1 (stereo not given in full),> 100 µM (inactive),,> 100 µM (inactive),> 100 µM (inactive),> 100 µM (inactive),,> 100 µM (inactive),> 100 µM (inactive),> 100 µM (inactive),> 100 µM (inactive),,> 100 µM (inactive),> 100 µM (inactive),> 100 µM (inactive),> 100 µM (inactive),> 100 µM (inactive),> 100 µM (inactive),> 100 µM (inactive),> 10 µM (inactive),> 100 µM (inactive)
CSc1nc(NC2OC(CO)C(O)C(O)C2O)c(N)c(=O)n1C (stereo not given),> 100 µM (inactive),> 100 µM (inactive),> 100 µM (inactive),> 100 µM (inactive),> 100 µM (inactive),> 100 µM (inactive),> 100 µM (inactive),> 100 µM (inactive),> 100 µM (inactive),> 100 µM (inactive),> 100 µM (inactive),> 100 µM (inactive),> 100 µM (inactive),> 100 µM (inactive),,> 100 µM (inactive),> 100 µM (inactive),> 100 µM (inactive),> 100 µM (inactive),> 100 µM (inactive)
CC(=O)C(=O)NC1/C=C(C)\C=C/C(O)C/C=C(C)\C=C/C(O)CC2OC(=O)C1(C)C(=O)C2C (stereo not given),> 62.2 µM (inactive),> 100 µM (inactive),> 100 µM (inactive),> 100 µM (inactive),> 100 µM (inactive),> 61.1 µM (inactive),> 55.1 µM (inactive),> 100 µM (inactive),> 100 µM (inactive),> 100 µM (inactive),> 31.2 µM (inactive),> 100 µM (inactive),> 100 µM (inactive),> 100 µM (inactive),> 100 µM (inactive),> 76.7 µM (inactive),> 100 µM (inactive),> 100 µM (inactive),> 100 µM (inactive),> 100 µM (inactive)
CN(C)CCCNC(=O)c1c(-c2cccnc2)cnc2ccccc12,> 100 µM (inactive),> 100 µM (inactive),> 100 µM (inactive),> 100 µM (inactive),> 100 µM (inactive),> 100 µM (inactive),> 100 µM (inactive),61.9 µM (inactive),> 100 µM (inactive),> 100 µM (inactive),> 100 µM (inactive),> 100 µM (inactive),> 10 µM (inactive),> 100 µM (inactive),> 100 µM (inactive),> 100 µM (inactive),> 100 µM (inactive),> 100 µM (inactive),> 100 µM (inactive),> 100 µM (inactive)
C=C1CC(OC)(C(OC)C(=O)N(C)[C@H]2OCO[C@H]3C2O[C@H](C[C@@H](COC)OC)C(C)(C)C3OC)O[C@H](C)[C@@H]1C (stereo not given in full),8.97 µM (inactive),6.19 µM (inactive),,15.7 µM (inactive),14 µM (inactive),13.6 µM (inactive),17.2 µM (inactive),> 9.16 µM (inactive),9.57 µM (inactive),,7.18 µM (inactive),10.6 µM (inactive),5.33 µM (inactive),8.43 µM (inactive),5.69 µM (inactive),7.71 µM (inactive),,14.2 µM (inactive),3.61 µM (inactive),10.1 µM (inactive)
NCCCn1c(Cl)nc2ccccc21,> 100 µM (inactive),> 100 µM (inactive),,> 100 µM (inactive),> 100 µM (inactive),> 100 µM (inactive),> 100 µM (inactive),> 100 µM (inactive),> 100 µM (inactive),> 100 µM (inactive),> 100 µM (inactive),> 100 µM (inactive),> 100 µM (inactive),> 100 µM (inactive),> 100 µM (inactive),> 100 µM (inactive),> 100 µM (inactive),,> 100 µM (inactive),> 100 µM (inactive)
O=S(=O)(CCBr)CCBr,3.21 µM (inactive),19.2 µM (inactive),6.21 µM (inactive),30.8 µM (inactive),2.23 µM (inactive),3.98 µM (inactive),4.53 µM (inactive),7.35 µM (inactive),6.52 µM (inactive),3.17 µM (inactive),2.58 µM (inactive),15.7 µM (inactive),13.9 µM (inactive),2.32 µM (inactive),5.3 µM (inactive),2.96 µM (inactive),11.3 µM (inactive),6.22 µM (inactive),9.57 µM (inactive),5.42 µM (inactive)
N#CCCN(CCC#N)c1ccc(/C=C2\N=C(c3cc([N+](=O)[O-])ccc3Cl)N(S(=O)(=O)c3ccccc3)C2=O)cc1,> 100 µM (inactive),> 100 µM (inactive),> 100 µM (inactive),> 100 µM (inactive),> 100 µM (inactive),> 100 µM (inactive),> 100 µM (inactive),> 100 µM (inactive),> 100 µM (inactive),> 100 µM (inactive),> 100 µM (inactive),> 100 µM (inactive),> 100 µM (inactive),> 100 µM (inactive),> 100 µM (inactive),> 100 µM (inactive),> 100 µM (inactive),> 100 µM (inactive),> 100 µM (inactive),> 100 µM (inactive)
CSC(=S)N(C)c1nc(N(C)C)s[s+]1,,> 100 µM (inactive),> 100 µM (inactive),> 100 µM (inactive),> 100 µM (inactive),> 100 µM (inactive),19.9 µM (inactive),> 100 µM (inactive),> 100 µM (inactive),> 100 µM (inactive),> 100 µM (inactive),> 100 µM (inactive),> 100 µM (inactive),> 100 µM (inactive),> 100 µM (inactive),> 100 µM (inactive),> 100 µM (inactive),> 100 µM (inactive),> 100 µM (inactive),> 100 µM (inactive)
